In patent US20230233569A1 (Revolution Medicines, Inc., priority 2020, published 2023) one finds IC50 data, which are given here for 4 compounds.

One assay has as its target KRAS G12S (Homo sapiens, UniProt P01116+P62937, G12S). The assay can be described thus: Disruption of BRAF RBD interaction with Ras (FRET / MOA assay, with Cyclophilin A). Type of assay: biochemical. Conditions: read-out: KRAS G12S FRET data, IC50. The procedure, abridged:
(§1)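 Measured via TR-FRET after 3 h at 25 °C with compound (30 μM top, threefold serial steps, ten concentrations) plus K-Ras, Cyclophilin A and BRAF RBD, followed by 1.5 h with anti-His europium (10 nM) and anti-GST allophycocyanin (50 nM). Signal loss versus DMSO gave IC50.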

Another assay addresses KRAS G12C (Homo sapiens, UniProt P01116+P62937, G12C). The description is as above. Type of assay: biochemical. Conditions: KRAS G12C; read-out: KRAS G12C FRET data IC50. The procedure, abridged: as §1
In another assay the target is KRAS G13C (Homo sapiens, UniProt P01116+P62937, G13C). The assay is described as above. The class given is biochemical. The following applies: KRAS G13C; read-out: KRAS G13C FRET data IC50. The gist of the method:
as §1

Another assay addresses KRAS G12D (Homo sapiens, UniProt P01116+P62937, G12D). The description is as above. The class given is biochemical. Conditions: read-out: KRAS G12D FRET data, IC50. The procedure, abridged: as §1
The target of another assay is KRAS WT (Homo sapiens, UniProt P01116+P62937). Described as above. The following applies: KRAS WT; read-out: KRAS WT FRET data IC50. Type of assay: biochemical. The procedure, abridged: as §1
The target in another assay is KRAS G13D (Homo sapiens, UniProt P01116+P62937, G13D). The description is as above. Type of assay: biochemical. The following applies: KRAS G13D; read-out: KRAS G13D FRET data IC50. The gist of the method: as §1
Another assay concerns the target KRAS G12V (Homo sapiens, UniProt P01116+P62937, G12V). The assay is described as above. Type of assay: biochemical. Conditions: KRAS G12V; read-out: KRAS G12V FRET data IC50. The procedure, abridged: as §1
A further assay deals with NRAS G12C (Homo sapiens, UniProt P01111+P62937, G12C). The description is as above. The class given is biochemical. Conditions: NRAS G12C; read-out: NRAS G12C FRET data IC50.
In another assay the target is KRAS Q61H (Homo sapiens, UniProt P01116+P62937, Q61H). Described as above. The class given is biochemical. The following applies: KRAS Q61H; read-out: KRAS Q61H FRET data IC50. The procedure, abridged: (§2)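 TR-FRET in 25 mM HEPES pH 7.3, 100 mM NaCl, 5 mM MgCl2, 0.1% BSA: 25 μM Cyclophilin A, 12.5 nM His6-Ras-GMPPNP, 50 nM GST-BRAF RBD with compound (10-point 3-fold series from 30 μM), 3 h at 25° C. Anti-His Eu/anti-GST APC added, 1.5 h more; IC50 from decreased FRET ratio versus DMSO.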

The target of another assay is NRAS Q61R (Homo sapiens, UniProt P01111+P62937, Q61R). Described as above. The class given is biochemical. Conditions: NRAS Q61R; read-out: NRAS Q61R FRET data IC50. The procedure, abridged: as §2
The target of another assay is NRAS Q61K (Homo sapiens, UniProt P01111+P62937, Q61K). The assay is described as above. The class given is biochemical. The following applies: NRAS Q61K; read-out: NRAS Q61K FRET data IC50. The gist of the method: as §2
In the next assay the test system is NCI-H358 (K-Ras G12C). The assay can be described thus: CellTiter-Glo cell viability assay, 5-day treatment. Type of assay: cell-based. Conditions: Homo sapiens, NCI-H358, H358, K-Ras G12C; read-out: Additional H358 Cell Viability assay data (K-Ras G12C, IC50). The procedure, abridged: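 Luminescence read-out after 5 days of compound exposure, with plates first brought to room temperature for roughly 30 minutes. Values are percent of averaged DMSO wells, fitted by four-parameter logistic regression.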

pIC50: −log10 of the molar value. Bounds are passed on as bounds.

NRAS Q61K, sequence (P01111 whole entry Q61K): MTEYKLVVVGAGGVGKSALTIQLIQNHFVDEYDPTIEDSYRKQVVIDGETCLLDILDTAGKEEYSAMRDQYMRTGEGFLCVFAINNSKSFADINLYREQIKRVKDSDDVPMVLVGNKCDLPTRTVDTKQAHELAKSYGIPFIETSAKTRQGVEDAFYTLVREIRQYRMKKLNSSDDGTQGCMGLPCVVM
NRAS Q61K, sequence (P62937 whole entry): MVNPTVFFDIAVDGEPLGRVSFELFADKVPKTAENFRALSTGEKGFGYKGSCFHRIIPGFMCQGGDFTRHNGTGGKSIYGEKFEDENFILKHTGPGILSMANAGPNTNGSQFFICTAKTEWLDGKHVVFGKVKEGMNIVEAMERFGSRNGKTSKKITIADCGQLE
KRAS G13D, sequence (P01116 1-169 isoform P01116-2 G13D limits assumed): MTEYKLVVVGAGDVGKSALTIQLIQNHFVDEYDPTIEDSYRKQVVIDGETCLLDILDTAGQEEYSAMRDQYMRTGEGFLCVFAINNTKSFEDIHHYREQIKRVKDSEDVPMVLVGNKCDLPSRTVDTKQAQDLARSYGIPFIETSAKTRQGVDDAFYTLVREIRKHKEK
KRAS G13D, sequence (P62937 whole entry): as the sequence (P62937 whole entry) above
KRAS Q61H, sequence (P01116 1-169 isoform P01116-2 Q61H limits assumed): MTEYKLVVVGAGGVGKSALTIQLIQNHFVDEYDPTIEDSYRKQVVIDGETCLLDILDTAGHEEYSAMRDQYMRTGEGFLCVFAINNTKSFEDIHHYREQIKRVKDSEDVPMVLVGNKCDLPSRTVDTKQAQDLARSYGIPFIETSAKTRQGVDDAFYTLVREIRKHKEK
KRAS Q61H, sequence (P62937 whole entry): as the sequence (P62937 whole entry) above
KRAS WT, sequence (P01116 1-169 isoform P01116-2 limits assumed): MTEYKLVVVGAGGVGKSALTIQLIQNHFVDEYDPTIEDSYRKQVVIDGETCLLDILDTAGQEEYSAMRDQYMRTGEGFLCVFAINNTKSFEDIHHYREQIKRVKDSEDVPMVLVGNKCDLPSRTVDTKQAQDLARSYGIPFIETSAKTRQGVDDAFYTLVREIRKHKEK
KRAS WT, sequence (P62937 whole entry): as the sequence (P62937 whole entry) above
KRAS G12C, sequence (P01116 1-169 isoform P01116-2 G12C): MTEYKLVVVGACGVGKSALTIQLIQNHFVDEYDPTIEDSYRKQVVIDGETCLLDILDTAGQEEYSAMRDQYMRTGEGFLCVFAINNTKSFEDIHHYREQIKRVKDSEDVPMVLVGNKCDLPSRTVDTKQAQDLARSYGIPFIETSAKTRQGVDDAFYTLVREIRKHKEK
KRAS G12C, sequence (P62937 whole entry): as the sequence (P62937 whole entry) above
KRAS G13C, sequence (P01116 1-169 isoform P01116-2 G13C): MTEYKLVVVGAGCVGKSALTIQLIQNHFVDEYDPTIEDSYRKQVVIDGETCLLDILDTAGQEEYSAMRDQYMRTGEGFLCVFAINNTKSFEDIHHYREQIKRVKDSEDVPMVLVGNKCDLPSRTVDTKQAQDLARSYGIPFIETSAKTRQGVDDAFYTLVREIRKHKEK
KRAS G13C, sequence (P62937 whole entry): as the sequence (P62937 whole entry) above
KRAS G12S, sequence (P01116 1-169 isoform P01116-2 G12S limits assumed): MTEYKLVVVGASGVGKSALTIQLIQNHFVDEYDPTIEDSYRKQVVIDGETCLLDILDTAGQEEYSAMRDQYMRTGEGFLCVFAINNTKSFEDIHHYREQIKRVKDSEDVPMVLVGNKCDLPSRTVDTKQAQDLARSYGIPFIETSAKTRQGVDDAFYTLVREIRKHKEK
KRAS G12S, sequence (P62937 whole entry): as the sequence (P62937 whole entry) above
KRAS G12D, sequence (P01116 1-169 isoform P01116-2 G12D limits assumed): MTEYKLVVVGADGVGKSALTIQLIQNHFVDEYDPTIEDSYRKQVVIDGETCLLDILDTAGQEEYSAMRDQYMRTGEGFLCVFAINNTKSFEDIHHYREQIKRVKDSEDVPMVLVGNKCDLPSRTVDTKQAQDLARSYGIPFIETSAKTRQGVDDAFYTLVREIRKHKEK
KRAS G12D, sequence (P62937 whole entry): as the sequence (P62937 whole entry) above
NRAS Q61R, sequence (P01111 whole entry Q61R): as the sequence (P01111 whole entry Q61K) above, with K61R counted along it
NRAS Q61R, sequence (P62937 whole entry): as the sequence (P62937 whole entry) above
KRAS G12V, sequence (P01116 1-169 isoform P01116-2 G12V limits assumed): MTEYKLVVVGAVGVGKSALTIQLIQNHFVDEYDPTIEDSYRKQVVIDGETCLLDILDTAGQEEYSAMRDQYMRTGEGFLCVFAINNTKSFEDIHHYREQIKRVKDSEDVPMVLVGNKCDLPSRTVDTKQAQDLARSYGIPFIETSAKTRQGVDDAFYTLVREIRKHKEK
KRAS G12V, sequence (P62937 whole entry): as the sequence (P62937 whole entry) above
NRAS G12C, sequence (P01111 whole entry G12C): as the sequence (P01111 whole entry Q61K) above, with G12C, K61Q counted along it
NRAS G12C, sequence (P62937 whole entry): as the sequence (P62937 whole entry) above

In the case of `C=CC(=O)N1CCOC2(CCN(C(=O)N(C)[C@H](C(=O)N[C@H]3Cc4nc(n(C)n4)-c4ccc5c(c4)c(c(-c4cccnc4[C@H](C)OC)n5CC(F)(F)F)CC(C)(C)COC(=O)C4CCCN(N4)C3=O)C(C)C)CC2)C1` (stereo partly drawn) [Example A606], the pIC50 (in general, the negative decadic logarithm of the IC50, by convention in mol/L) was 6.00 to 7.00 on KRAS G12S; 6.00 to 7.00 on KRAS G12C; 7.00 to 8.00 on KRAS G13C; 5.00 to 6.00 on KRAS G12D; 6.00 to 7.00 at KRAS WT; 6.00 to 7.00 at KRAS G13D. Also, the pIC50 is 6.00 to 7.00 at KRAS G12V; 6.00 to 7.00 on NRAS G12C; 7.00 to 8.00 at KRAS Q61H; 6.00 to 7.00 at NRAS Q61R; 6.00 to 7.00 on NRAS Q61K; 6.00 to 7.00 in the assay on NCI-H358 (K-Ras G12C).
Regarding `C=CC(=O)N1CCOC2(CCN(C(=O)N(C)[C@H](C(=O)N[C@H]3Cc4cccc(c4)-c4ccc5c(c4)c(c(-c4cccnc4[C@H](C)OC)n5CC(F)(F)F)CC(C)(C)COC(=O)C4CCCN(N4)C3=O)C(C)C)CC2)C1` (stereo partly drawn) [Example A608], the pIC50 at KRAS G12S was 6.00 to 7.00; on KRAS G12C, 6.00 to 7.00; on KRAS G13C, 7.00 to 8.00; at KRAS G12D it was 6.00 to 7.00; at KRAS WT, 6.00 to 7.00; on KRAS G13D, 6.00 to 7.00. The pIC50 on KRAS G12V is 6.00 to 7.00; at NRAS G12C, 6.00 to 7.00; on KRAS Q61H it was 7.00 to 8.00; on NRAS Q61R, 6.00 to 7.00; at NRAS Q61K it was 6.00 to 7.00; with NCI-H358 (K-Ras G12C), 7.00 to 8.00.
`C=CC(=O)N1CCO[C@H]2CCN(C(=O)N(C)[C@H](C(=O)N[C@H]3Cc4nc(cs4)-c4ccc5c(c4)c(c(-c4cccnc4[C@H](C)OC)n5CC)CC(C)(C)COC(=O)C4CCCN(N4)C3=O)C(C)C)C[C@@H]21` (stereo partly drawn) [Example A609]: the pIC50 on KRAS G12S is 7.00 to 8.00; on KRAS G12C, over 8.00; at KRAS G13C, 7.00 to 8.00; at KRAS G12D it was 6.00 to 7.00; on KRAS WT, 7.00 to 8.00; at KRAS G13D, 6.00 to 7.00. The pIC50 was 7.00 to 8.00 on KRAS G12V; over 8.00 on NRAS G12C; 7.00 to 8.00 on KRAS Q61H; 7.00 to 8.00 at NRAS Q61R; 7.00 to 8.00 at NRAS Q61K; over 8.00 in the assay with NCI-H358 (K-Ras G12C).
As for `C=CC(=O)N1CCO[C@H]2CN(C(=O)N(C)[C@H](C(=O)N[C@H]3Cc4cccc(c4)-c4ccc5c(c4)c(c(-c4cccnc4[C@H](C)OC)n5CC)CC(C)(C)COC(=O)C4CCCN(N4)C3=O)C(C)C)C[C@H]21` (stereo partly drawn) [Example A610], the pIC50 is 5.00 to 6.00 on KRAS G12S; 7.00 to 8.00 on KRAS G12C; 7.00 to 8.00 on KRAS G13C; 5.00 to 6.00 at KRAS G12D; 6.00 to 7.00 on KRAS WT; 5.00 to 6.00 on KRAS G13D. Also, the pIC50 was 5.00 to 6.00 on KRAS G12V; 7.00 to 8.00 on NRAS G12C; 6.00 to 7.00 on KRAS Q61H; 6.00 to 7.00 at NRAS Q61R; 6.00 to 7.00 at NRAS Q61K; over 8.00 in the assay on NCI-H358 (K-Ras G12C).
